From ChEMBL document CHEMBL3769336, “Discovery of a Chemical Tool Inhibitor Targeting the Bromodomains of TRIM24 and BRPF” (J Med Chem, 2016) come the findings set out here.

pIC50, pKd: −log10 of the molar value.

Experiment [1] concerns the target T1, Transcription intermediary factor 1-alpha (Homo sapiens, UniProt O15164).
T1 sequence (O15164 whole entry): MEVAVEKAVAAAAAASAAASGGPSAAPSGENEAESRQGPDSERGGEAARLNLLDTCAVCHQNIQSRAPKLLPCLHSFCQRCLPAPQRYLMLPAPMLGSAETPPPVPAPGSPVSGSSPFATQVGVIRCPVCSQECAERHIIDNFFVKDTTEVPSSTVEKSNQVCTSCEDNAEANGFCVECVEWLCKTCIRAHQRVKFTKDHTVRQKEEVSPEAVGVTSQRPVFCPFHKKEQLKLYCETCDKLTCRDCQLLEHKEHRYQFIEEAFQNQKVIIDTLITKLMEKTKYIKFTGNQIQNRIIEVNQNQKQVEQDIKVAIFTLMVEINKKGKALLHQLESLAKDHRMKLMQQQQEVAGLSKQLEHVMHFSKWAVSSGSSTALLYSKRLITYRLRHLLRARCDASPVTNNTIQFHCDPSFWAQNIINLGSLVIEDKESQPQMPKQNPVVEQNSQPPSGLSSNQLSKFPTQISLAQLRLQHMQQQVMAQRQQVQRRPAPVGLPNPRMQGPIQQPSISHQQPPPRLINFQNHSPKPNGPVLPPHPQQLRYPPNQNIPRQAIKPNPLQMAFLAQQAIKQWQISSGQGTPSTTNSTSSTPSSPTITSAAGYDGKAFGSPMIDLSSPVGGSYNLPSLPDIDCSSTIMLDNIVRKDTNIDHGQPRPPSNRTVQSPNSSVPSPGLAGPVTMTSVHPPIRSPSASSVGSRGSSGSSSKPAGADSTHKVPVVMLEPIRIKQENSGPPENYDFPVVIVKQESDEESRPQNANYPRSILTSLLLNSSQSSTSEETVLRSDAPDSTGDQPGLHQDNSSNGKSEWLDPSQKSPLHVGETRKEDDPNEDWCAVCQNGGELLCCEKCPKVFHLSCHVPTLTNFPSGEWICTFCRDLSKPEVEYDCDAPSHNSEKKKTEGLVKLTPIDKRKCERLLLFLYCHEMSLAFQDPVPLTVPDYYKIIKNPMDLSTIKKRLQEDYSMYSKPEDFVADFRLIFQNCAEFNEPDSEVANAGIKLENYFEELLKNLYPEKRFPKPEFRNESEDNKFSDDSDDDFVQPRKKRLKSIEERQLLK
Description: Binding affinity to N-terminal His6-SUMO-1-tagged recombinant human TRIM24 bromodomain expressed in Escherichia coli BL21(DE3)-R3-pRARE2 cells by isothermal titration calorimetry.

The target in experiment [2] is T2, Bromodomain-containing protein 1 (Homo sapiens, UniProt O95696).
T2 sequence (O95696 whole entry): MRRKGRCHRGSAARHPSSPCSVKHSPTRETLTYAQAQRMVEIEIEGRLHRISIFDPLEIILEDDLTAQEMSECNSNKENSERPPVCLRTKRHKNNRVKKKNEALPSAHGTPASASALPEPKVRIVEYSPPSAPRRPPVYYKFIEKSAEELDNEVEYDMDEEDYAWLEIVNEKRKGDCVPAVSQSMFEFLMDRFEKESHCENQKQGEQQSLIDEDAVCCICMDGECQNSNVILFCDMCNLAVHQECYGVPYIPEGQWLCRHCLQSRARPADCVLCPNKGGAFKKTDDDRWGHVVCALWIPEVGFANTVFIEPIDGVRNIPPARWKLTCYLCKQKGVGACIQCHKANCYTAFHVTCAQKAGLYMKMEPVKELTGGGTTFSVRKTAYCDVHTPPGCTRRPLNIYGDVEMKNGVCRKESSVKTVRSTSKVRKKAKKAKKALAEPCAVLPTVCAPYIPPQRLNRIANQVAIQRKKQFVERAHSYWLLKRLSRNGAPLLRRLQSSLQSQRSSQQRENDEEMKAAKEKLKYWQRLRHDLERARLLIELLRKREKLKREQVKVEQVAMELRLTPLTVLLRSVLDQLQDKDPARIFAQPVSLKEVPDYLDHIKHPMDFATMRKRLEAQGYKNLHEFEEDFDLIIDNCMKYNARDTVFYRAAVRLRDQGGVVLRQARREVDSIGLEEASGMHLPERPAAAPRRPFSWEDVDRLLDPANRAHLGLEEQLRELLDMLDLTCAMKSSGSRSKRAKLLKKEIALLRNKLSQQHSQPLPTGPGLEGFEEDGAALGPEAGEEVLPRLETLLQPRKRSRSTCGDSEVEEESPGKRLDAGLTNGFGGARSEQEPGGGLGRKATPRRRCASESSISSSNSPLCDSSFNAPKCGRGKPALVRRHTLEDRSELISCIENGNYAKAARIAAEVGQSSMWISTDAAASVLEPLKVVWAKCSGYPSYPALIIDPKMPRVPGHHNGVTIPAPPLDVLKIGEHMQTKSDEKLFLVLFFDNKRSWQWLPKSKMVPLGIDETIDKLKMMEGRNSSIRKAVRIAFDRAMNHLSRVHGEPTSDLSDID
Description: Binding affinity to BRPF2 BRD1 (unknown origin) by isothermal titration calorimetry. (Isothermal titration calorimetry measures the heat released or taken up as one component is titrated into another.)

Experiment [3] deals with T2, Bromodomain-containing protein 1. The experiment in a line: Inhibition of BRPF2 BRD1 (unknown origin) by Alpha Screen assay.

For `COc1ccc(Oc2cc3c(cc2NS(=O)(=O)c2ccc(OC)c(OC)c2)n(C)c(=O)n3C)cc1`, the figures for the pKd in experiment [1] and in experiment [2] were 6.65 and 5.95, respectively. This compound had a pIC50 in experiment [3] of 5.76.

Broadly, the pKd is −log10 of the Kd, conventionally taken in molar units. In general, pIC50 refers to the IC50 on a negative log10 scale, so that one unit is a factor of ten. A low value points to a high IC50.
